# Laboratory results published in US6388071B2, “Alkynyl phenyl heteroaromatic glucokinase activators” (Hoffmann-La Roche Inc., priority 2000, dated 2002).
row,Compound,melting point [°C]
1,"C#Cc1ccc(C(CC2CCCC2)C(=O)Nc2nccs2)cc1 (stereo not drawn) [Example 1, 3-Cyclopentyl-2-(4-ethynyl-phenyl)-N-thiazol-2-yl-propionamide]",181 to 183
2,"O=C(Nc1nccs1)C(CC1CCCC1)c1ccc(C#CC2(O)CCCCC2)cc1 (stereo not drawn) [Example 2, 3-Cyclopentyl-2-[4-(1-hydroxy-cyclohexylethynyl)-phenyl]-N-thiazol-2-yl-propionamide]",172 to 173
3,"COCC#Cc1ccc(C(CC2CCCC2)C(=O)Nc2nccs2)cc1 (stereo not drawn) [Example 3, 3-Cyclopentyl-2-[4-(3-methoxy-prop-1-ynyl)-phenyl]-N-thiazol-2-yl-propionamide]",170 to 172
4,"CCC(C)(O)C#Cc1ccc(C(CC2CCCC2)C(=O)Nc2nccs2)cc1 (stereo not drawn) [Example 4, 3-Cyclopentyl-2-[4-(3-hydroxy-3-methyl-pent-1-ynyl)-phenyl]-N-thiazol-2-yl-propionamide]",172 to 174

# Continued, values first:
row,melting point [°C],Compound
1,162 to 163,"CC(O)CC#Cc1ccc(C(CC2CCCC2)C(=O)Nc2nccs2)cc1 (stereo not drawn) [Example 5, 3-Cyclopentyl-2-[4-(4-hydroxy-pent-1-ynyl)-phenyl]-N-thiazol-2-yl-propionamide]"
2,220 to 222,"O=C(Nc1nccs1)C(CC1CCCC1)c1ccc(C#CCO)cc1 (stereo not drawn) [Example 6, 3-Cyclopentyl-2-[4-(3-hydroxy-prop-1-ynyl)-phenyl]-N-thiazol-2-yl-propionamide]"
3,164 to 167,CN(C)CC#Cc1ccc(C(CC2CCCC2)C(=O)Nc2nccs2)cc1 (stereo not drawn) [Example 7]
4,185 to 187,"O=C(Nc1nccs1)C(CC1CCCC1)c1ccc(C#Cc2ccccn2)cc1 (stereo not drawn) [Example 9, 3-Cyclopentyl-2-(4-pyridin-2-ylethynyl-phenyl)-N-thiazol-2-yl-propionamide]"
5,149 to 151,"O=C(Nc1nccs1)C(CC1CCCC1)c1ccc(C#Cc2cncnc2)cc1 (stereo not drawn) [Example 10, 3-Cyclopentyl-2-(4-pyrimidin-5-ylethynyl-phenyl)-N-thiazol-2-yl-propionamide]"
